US20110009381A1, “SOLUBILIZED THIAZOLOPYRIDINES” (Sirtis Pharmaceuticals, Inc., priority 2007, published 2011)

Target: T1, SIRT1 (Homo sapiens, UniProt Q96EB6)
T1 sequence (Q96EB6 1-747): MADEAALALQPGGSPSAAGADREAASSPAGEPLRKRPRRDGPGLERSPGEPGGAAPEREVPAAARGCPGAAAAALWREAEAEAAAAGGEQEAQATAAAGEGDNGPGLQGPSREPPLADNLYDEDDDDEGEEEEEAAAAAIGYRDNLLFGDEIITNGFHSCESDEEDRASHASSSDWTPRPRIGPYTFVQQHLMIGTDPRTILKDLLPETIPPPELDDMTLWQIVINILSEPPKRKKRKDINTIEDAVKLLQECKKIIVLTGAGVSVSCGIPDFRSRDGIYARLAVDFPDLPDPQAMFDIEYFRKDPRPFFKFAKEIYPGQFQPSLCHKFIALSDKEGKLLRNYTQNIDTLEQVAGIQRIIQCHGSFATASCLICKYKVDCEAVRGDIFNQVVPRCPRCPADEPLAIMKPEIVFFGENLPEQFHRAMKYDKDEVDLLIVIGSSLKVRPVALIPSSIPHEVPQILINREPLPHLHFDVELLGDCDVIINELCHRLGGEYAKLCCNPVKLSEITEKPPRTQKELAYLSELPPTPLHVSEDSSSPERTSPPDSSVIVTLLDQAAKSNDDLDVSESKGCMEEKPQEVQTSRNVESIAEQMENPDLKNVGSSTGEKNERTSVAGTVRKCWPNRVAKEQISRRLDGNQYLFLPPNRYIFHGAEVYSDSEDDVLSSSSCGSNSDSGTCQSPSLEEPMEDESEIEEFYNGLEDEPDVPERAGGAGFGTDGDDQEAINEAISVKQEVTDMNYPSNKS
Assay: Mass spectrometry based assay to identify modulators of SIRT1 activity (deacetylation of p53-based acetylated peptide substrate)
Assay type: biochemical
Conditions: 10 nM SIRT1, 0.5 μM peptide substrate, 120 μM βNAD+, 25 minutes at 25° C.; for EC1.5: SIRT1 activation
Outline: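 Activation measured on His-tagged SIRT1 (10 nM, E. coli-expressed) deacetylating a 0.5 μM p53-derived acetyl-peptide with 120 μM βNAD^+ for 25 min at 25 °C, pH 8 Tris-acetate. After formic acid stop, mass spectrometry quantified acetylated versus deacetylated peptide, referenced to DMSO and nicotinamide controls. Reported as EC1.5 and maximum fold activation.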

Row | SMILES | FOLD ACT. (percent maximum fold activation) | EC1.5
1 | CC(C)N1CCN(c2cc(C(=O)Nc3ccccc3-c3nc4cccnc4s3)nc(-c3ccccc3)c2)CC1 [Compound 123] | A (Fold activation≧300%) | A′ (EC1.5<250 nM)
2 | CCCN1CCC(Nc2cc(C(=O)Nc3ccccc3-c3nc4cccnc4s3)nc(-c3ccccc3)n2)CC1 [Compound 101] | A (Fold activation≧300%) | A′ (EC1.5<250 nM)
3 | O=C(Nc1ccccc1-c1nc2cccnc2s1)c1cc(N[C@H]2CCCNC2)nc(-c2ccccc2)n1 [Compound 85] | A (Fold activation≧300%) | A (EC1.5≧250 nM and ≦1 uM)
4 | O=C(Nc1ccccc1-c1nc2cccnc2s1)c1cc(N2CCN3CCC[C@H]3C2)cc(-c2ccccc2)n1 [Compound 144] | A (Fold activation≧300%) | A′ (EC1.5<250 nM)
5 | CN1CCN(c2cc(C(=O)Nc3ccccc3-c3nc4cccnc4s3)nc(-c3ccccc3)n2)CC1=O [Compound 151] | B (Fold Activation≧150% and <300%) | A′ (EC1.5<250 nM)
6 | Cc1cccc(-c2nc(NCCN3CCOCC3)cc(C(=O)Nc3ccccc3-c3nc4cccnc4s3)n2)c1 [Compound 133] | A (Fold activation≧300%) | A′ (EC1.5<250 nM)
7 | CS(=O)(=O)CCNc1cc(C(=O)Nc2ccccc2-c2nc3cccnc3s2)nc(-c2ccccc2)n1 [Compound 46] | A (Fold activation≧300%) | A′ (EC1.5<250 nM)
8 | O=C(Nc1ccccc1-c1nc2ccncc2s1)c1cc(NCc2cccnc2)nc(-c2ccccc2)n1 [Compound 31] | B (Fold Activation≧150% and <300%) | A (EC1.5≧250 nM and ≦1 uM)
9 | O=C(Nc1ccccc1-c1nc2cccnc2s1)c1cc(NCC2CCNCC2)nc(-c2ccccc2)n1 [Compound 82] | A (Fold activation≧300%) | A′ (EC1.5<250 nM)
10 | COCCN1CCN(c2cc(C(=O)Nc3ccccc3-c3nc4cccnc4s3)nc(-c3ccccc3)c2)CC1 [Compound 124] | A (Fold activation≧300%) | A′ (EC1.5<250 nM)
11 | O=C(Nc1ccccc1-c1nc2cccnc2s1)c1cc(C#CCO)nc(-c2ccccc2)n1 [Compound 79] | C (Fold Activation<150%) | C (EC1.5>10 uM)
12 | C[C@@H]1CN(c2cc(C(=O)Nc3ccccc3-c3nc4cccnc4s3)nc(-c3ccccc3)n2)C[C@H](C)N1 [Compound 35] | A (Fold activation≧300%) | A′ (EC1.5<250 nM)
13 | O=C(Nc1ccccc1-c1nc2cccnc2s1)c1cc(NC2CCNCC2)nc(-c2ccccc2)n1 [Compound 49] | A (Fold activation≧300%) | A′ (EC1.5<250 nM)
14 | O=C(Nc1ccccc1-c1nc2cccnc2s1)c1cc(N2CCN3CCC[C@H]3C2)nc(-c2ccccc2)n1 [Compound 120] | A (Fold activation≧300%) | A (EC1.5≧250 nM and ≦1 uM)
15 | COCCN1CCN(CCOc2cc(C(=O)Nc3ccccc3-c3nc4cccnc4s3)nc(-c3ccccc3)c2)CC1 [Compound 12] | A (Fold activation≧300%) | A′ (EC1.5<250 nM)
16 | Cc1nc(CCNc2cc(C(=O)Nc3ccccc3-c3nc4cccnc4s3)nc(-c3ccccc3)n2)cs1 [Compound 53] | B (Fold Activation≧150% and <300%) | A (EC1.5≧250 nM and ≦1 uM)
17 | O=C(Nc1ccccc1-c1nc2cccnc2s1)c1cc(N2CCNCC2)nc(-c2ccccc2)n1 [Compound 1] | A (Fold activation≧300%) | A′ (EC1.5<250 nM)
18 | O=C(Nc1ccccc1-c1nc2cccnc2s1)c1cc(NC(CO)CO)nc(-c2ccccc2)n1 [Compound 69] | A (Fold activation≧300%) | A′ (EC1.5<250 nM)
19 | CC(C)CNc1cc(C(=O)Nc2ccccc2-c2nc3cccnc3s2)nc(-c2ccccc2)n1 [Compound 19] | C (Fold Activation<150%) | C (EC1.5>10 uM)
20 | O=C(Nc1ccccc1-c1nc2cccnc2s1)c1cc(NC(CO)C(=O)O)nc(-c2ccccc2)n1 (centres unmarked) [Compound 92] | A (Fold activation≧300%) | B (EC1.5>1 and ≦10 uM)

Row | SMILES | FOLD ACT. (percent maximum fold activation) | EC1.5
21 | O=C(Nc1ccccc1-c1nc2cccnc2s1)c1cc(NC2CCCC2)nc(-c2ccccc2)n1 [Compound 20] | C (Fold Activation<150%) | C (EC1.5>10 uM)
22 | NCCCOc1cc(C(=O)Nc2ccccc2-c2nc3cccnc3s2)nc(-c2ccccc2)n1 [Compound 76] | A (Fold activation≧300%) | A′ (EC1.5<250 nM)
23 | O=C(Nc1ccccc1-c1nc2ccncc2s1)c1cc(NCCN2CCOCC2)nc(-c2ccccc2)n1 [Compound 30] | A (Fold activation≧300%) | A (EC1.5≧250 nM and ≦1 uM)
24 | CCSCCNc1cc(C(=O)Nc2ccccc2-c2nc3cccnc3s2)nc(-c2ccccc2)n1 [Compound 73] | B (Fold Activation≧150% and <300%) | B (EC1.5>1 and ≦10 uM)
25 | C[C@H](Nc1cc(C(=O)Nc2ccccc2-c2nc3cccnc3s2)nc(-c2ccccc2)n1)C(=O)O [Compound 75] | A (Fold activation≧300%) | A (EC1.5≧250 nM and ≦1 uM)
26 | CC(C)(C)N1CCC(Nc2cc(C(=O)Nc3ccccc3-c3nc4cccnc4s3)nc(-c3ccccc3)n2)CC1 [Compound 125] | A (Fold activation≧300%) | A′ (EC1.5<250 nM)
27 | CNc1cc(C(=O)Nc2ccccc2-c2nc3cccnc3s2)nc(-c2ccccc2)n1 [Compound 64] | C (Fold Activation<150%) | C (EC1.5>10 uM)
28 | O=C(Nc1ccccc1-c1nc2cccnc2s1)c1cc(NC2CCN(Cc3ccccc3)CC2)nc(-c2ccccc2)n1 [Compound 113] | B (Fold Activation≧150% and <300%) | A (EC1.5≧250 nM and ≦1 uM)
29 | CC(C)N1CCN(c2cc(C(=O)Nc3ccccc3-c3nc4cccnc4s3)nc(-c3ccccc3)n2)CC1.Cl [Compound 65] | B (Fold Activation≧150% and <300%) | A′ (EC1.5<250 nM)
30 | O=C(Nc1ccccc1-c1nc2cccnc2s1)c1cc(NCC2CCCCN2)nc(-c2ccccc2)n1 (centres unmarked) [Compound 89] | A (Fold activation≧300%) | A′ (EC1.5<250 nM)
31 | CN(C)CCNCCOc1cc(C(=O)Nc2ccccc2-c2nc3cccnc3s2)nc(-c2ccccc2)c1 [Compound 33] | A (Fold activation≧300%) | A′ (EC1.5<250 nM)
32 | CCN(CC)CCCNc1cc(C(=O)Nc2ccccc2-c2nc3cccnc3s2)nc(-c2ccccc2)n1 [Compound 81] | A (Fold activation≧300%) | A′ (EC1.5<250 nM)
33 | CCN(CC)CCNc1cc(C(=O)Nc2ccccc2-c2nc3cccnc3s2)nc(-c2ccccc2)n1 [Compound 41] | A (Fold activation≧300%) | A′ (EC1.5<250 nM)
34 | O=C(Nc1ccccc1-c1nc2cccnc2s1)c1cc(OC[C@H](O)CO)nc(-c2ccccc2)n1 [Compound 107] | B (Fold Activation≧150% and <300%) | A (EC1.5≧250 nM and ≦1 uM)
35 | COCCN(C)CCOc1cc(C(=O)Nc2ccccc2-c2nc3cccnc3s2)nc(-c2ccccc2)c1 [Compound 50] | A (Fold activation≧300%) | A′ (EC1.5<250 nM)
36 | O=C(Nc1ccccc1-c1nc2cccnc2s1)c1cc(NCc2ccccn2)nc(-c2ccccc2)n1 [Compound 55] | B (Fold Activation≧150% and <300%) | A (EC1.5≧250 nM and ≦1 uM)
37 | COCCNc1cc(C(=O)Nc2ccccc2-c2nc3cccnc3s2)nc(-c2ccccc2)c1 [Compound 131] | A (Fold activation≧300%) | A′ (EC1.5<250 nM)
38 | CC(C)N1CCN(c2cc(C(=O)Nc3ccccc3-c3nc4ccncc4s3)nc(-c3ccccc3)n2)CC1 [Compound 24] | A (Fold activation≧300%) | A′ (EC1.5<250 nM)
39 | CCOC(=O)CCNc1cc(C(=O)Nc2ccccc2-c2nc3cccnc3s2)nc(-c2ccccc2)n1 [Compound 43] | B (Fold Activation≧150% and <300%) | A (EC1.5≧250 nM and ≦1 uM)
40 | COCCN1CCN(c2cc(C(=O)Nc3ccccc3-c3nc4cccnc4s3)nc(-c3ccccc3)n2)CC1 [Compound 3] | A (Fold activation≧300%) | A′ (EC1.5<250 nM)
